Measured values: PubChem BioAssay (NCI)
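Five concentrations, 48 hours, 96-well plates. GI50 is the concentration that inhibits growth by half. TGI denotes the concentration required for complete inhibition of growth.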

Tests used:
Assay in all cases: growth of human tumour cells (NCI), 48 h
[1] = test system: 786-0 renal
[2] = test system: OVCAR-4 ovarian
[3] = test system: MDA-MB-231 breast
[4] = test system: COLO 205 colon
[5] = test system: SK-OV-3 ovarian
[6] = test system: U251 CNS
[7] = test system: SF-268 CNS
[8] = test system: UACC-257 melanoma
[9] = test system: T-47D breast
[10] = test system: BT-549 breast
[11] = test system: NCI-H460 lung
[12] = test system: NCI/ADR-RES ovarian
[13] = test system: MDA-MB-435
[14] = test system: SN12C renal
[15] = test system: SF-539 CNS
[16] = test system: MALME-3M melanoma
[17] = test system: NCI-H226 lung
[18] = test system: OVCAR-8 ovarian
[19] = test system: HCC-2998 colon
[20] = test system: SK-MEL-28 melanoma
[21] = test system: KM12 colon
[22] = test system: TK-10 renal
[23] = test system: DU-145 prostate
[24] = test system: HCT-116 colon
[25] = test system: NCI-H23 lung
[26] = test system: HS 578T breast
[27] = test system: EKVX NSCLC
[28] = test system: HT29 colon
[29] = test system: CCRF-CEM leukemia
[30] = test system: A498 renal
[31] = test system: RXF 393 renal
[32] = test system: OVCAR-3 ovarian
[33] = test system: SK-MEL-5 melanoma
[34] = test system: SF-295 CNS
[35] = test system: MCF7 breast
[36] = test system: OVCAR-5 ovarian
[37] = test system: HOP-62 NSCLC
[38] = test system: HCT-15 colon
[39] = test system: HL-60(TB) leukemia
[40] = test system: SR leukemia
[41] = test system: IGROV1 ovarian
[42] = test system: MOLT-4 leukemia
[43] = test system: SW-620 colon
[44] = test system: SK-MEL-2 melanoma
[45] = test system: CAKI-1 renal
[46] = test system: SNB-75 CNS
[47] = test system: RPMI-8226 leukemia
[48] = test system: SNB-19 CNS
[49] = test system: A549 NSCLC
[50] = test system: UO-31 renal
[51] = test system: K-562 leukemia
[52] = test system: M14 melanoma
[53] = test system: NCI-H522 lung
[54] = test system: PC-3 prostate
[55] = test system: LOX IMVI melanoma
[56] = test system: ACHN renal
[57] = test system: UACC-62 melanoma

SMILES: C/C(=N/O)c1cccc(Nc2cc(-n3nnc4ccccc43)nc3ccccc23)c1
- GI50 [1]: 4.84 µM
- TGI [1]: 31.3 µM
- GI50 [2]: 18.8 µM
- TGI [2]: > 100 µM
- GI50 [3]: 7.2 µM
- TGI [3]: > 23.4 µM
- GI50 [4]: 32.4 µM
- TGI [4]: > 73 µM
- GI50 [5]: 30.5 µM
- TGI [5]: > 74.2 µM
- GI50 [6]: 20.4 µM
- TGI [6]: > 100 µM
- GI50 [7]: 17.2 µM
- TGI [7]: > 64 µM
- GI50 [8]: 22.7 µM
- TGI [8]: > 64.4 µM
- GI50 [9]: 34.6 µM
- TGI [9]: > 85.3 µM
- GI50 [10]: 19.5 µM
- TGI [10]: 54.7 µM
- GI50 [11]: 14.7 µM
- TGI [11]: 46.7 µM
- GI50 [12]: 8.36 µM
- TGI [12]: 27.9 µM
- GI50 [13]: 13.7 µM
- TGI [13]: 37.1 µM
- GI50 [14]: 8.96 µM
- TGI [14]: 30.5 µM
- GI50 [15]: 1620 nM
- TGI [15]: 5.88 µM
- GI50 [16]: 16.8 µM
- TGI [16]: 48 µM
- GI50 [17]: 11.8 µM
- TGI [17]: 47.3 µM
- GI50 [18]: 13.5 µM
- TGI [18]: 51.8 µM
- GI50 [19]: 10.5 µM
- TGI [19]: 23.2 µM
- GI50 [20]: 21.1 µM
- TGI [20]: > 68 µM
- GI50 [21]: 9.48 µM
- TGI [21]: 28.4 µM
- GI50 [22]: 13.6 µM
- TGI [22]: 50.2 µM
- GI50 [23]: 11.6 µM
- TGI [23]: 41.3 µM
- GI50 [24]: 10.3 µM
- TGI [24]: 26 µM
- GI50 [25]: 15.7 µM
- TGI [25]: 35.5 µM
- GI50 [26]: 14.3 µM
- TGI [26]: 45.5 µM
- GI50 [27]: 8.07 µM
- TGI [27]: > 32 µM
- GI50 [28]: 12.3 µM
- TGI [28]: > 100 µM
- GI50 [29]: 3.98 µM
- TGI [29]: 18.6 µM
- GI50 [30]: 25 µM
- TGI [30]: 55.8 µM
- GI50 [31]: 14.7 µM
- TGI [31]: 43 µM
- GI50 [32]: 13 µM
- TGI [32]: 31.7 µM
- GI50 [33]: 3.78 µM
- TGI [33]: 13.7 µM
- GI50 [34]: 5.62 µM
- TGI [34]: 19.8 µM
- GI50 [35]: 14.4 µM
- TGI [35]: > 55.6 µM
- GI50 [36]: 22.5 µM
- TGI [36]: 84.9 µM
- GI50 [37]: 20.5 µM
- TGI [37]: 44.2 µM
- GI50 [38]: 11.4 µM
- TGI [38]: 32.8 µM
- GI50 [39]: 13.1 µM
- TGI [39]: 49.9 µM
- GI50 [40]: 15 µM
- TGI [40]: 35.2 µM
- GI50 [41]: 29.9 µM
- TGI [41]: > 73 µM
- GI50 [42]: 4.05 µM
- TGI [42]: > 40 µM
- GI50 [43]: 21.5 µM
- TGI [43]: 57 µM
- GI50 [44]: 28 µM
- TGI [44]: > 63.2 µM
- GI50 [45]: 16.8 µM
- TGI [45]: 43.5 µM
- GI50 [46]: 35.6 µM
- TGI [46]: > 100 µM
- GI50 [47]: 3.07 µM
- TGI [47]: 14.4 µM
- GI50 [48]: 25.7 µM
- TGI [48]: > 100 µM
- GI50 [49]: 13.3 µM
- TGI [49]: > 72.9 µM
- GI50 [50]: 25 µM
- TGI [50]: > 100 µM
- GI50 [51]: 5.91 µM
- TGI [51]: 82.1 µM
- GI50 [52]: 7.48 µM
- TGI [52]: 20.3 µM
- GI50 [53]: 19.4 µM
- TGI [53]: > 57.5 µM
- GI50 [54]: 8.87 µM
- TGI [54]: 33.5 µM
- GI50 [55]: 24.2 µM
- TGI [55]: 93 µM
- GI50 [56]: 14.2 µM
- TGI [56]: 46.6 µM
- GI50 [57]: 12.7 µM
- TGI [57]: 34 µM
